We go through three compounds from patent US9884063B2, “Amido-substituted azole compounds” (Bayer Pharma Aktiengesellschaft, priority 2014, dated 2018).

The test concerns the target T1, TNKS1 (Homo sapiens, UniProt O95271).
T1 sequence (O95271 1-1327): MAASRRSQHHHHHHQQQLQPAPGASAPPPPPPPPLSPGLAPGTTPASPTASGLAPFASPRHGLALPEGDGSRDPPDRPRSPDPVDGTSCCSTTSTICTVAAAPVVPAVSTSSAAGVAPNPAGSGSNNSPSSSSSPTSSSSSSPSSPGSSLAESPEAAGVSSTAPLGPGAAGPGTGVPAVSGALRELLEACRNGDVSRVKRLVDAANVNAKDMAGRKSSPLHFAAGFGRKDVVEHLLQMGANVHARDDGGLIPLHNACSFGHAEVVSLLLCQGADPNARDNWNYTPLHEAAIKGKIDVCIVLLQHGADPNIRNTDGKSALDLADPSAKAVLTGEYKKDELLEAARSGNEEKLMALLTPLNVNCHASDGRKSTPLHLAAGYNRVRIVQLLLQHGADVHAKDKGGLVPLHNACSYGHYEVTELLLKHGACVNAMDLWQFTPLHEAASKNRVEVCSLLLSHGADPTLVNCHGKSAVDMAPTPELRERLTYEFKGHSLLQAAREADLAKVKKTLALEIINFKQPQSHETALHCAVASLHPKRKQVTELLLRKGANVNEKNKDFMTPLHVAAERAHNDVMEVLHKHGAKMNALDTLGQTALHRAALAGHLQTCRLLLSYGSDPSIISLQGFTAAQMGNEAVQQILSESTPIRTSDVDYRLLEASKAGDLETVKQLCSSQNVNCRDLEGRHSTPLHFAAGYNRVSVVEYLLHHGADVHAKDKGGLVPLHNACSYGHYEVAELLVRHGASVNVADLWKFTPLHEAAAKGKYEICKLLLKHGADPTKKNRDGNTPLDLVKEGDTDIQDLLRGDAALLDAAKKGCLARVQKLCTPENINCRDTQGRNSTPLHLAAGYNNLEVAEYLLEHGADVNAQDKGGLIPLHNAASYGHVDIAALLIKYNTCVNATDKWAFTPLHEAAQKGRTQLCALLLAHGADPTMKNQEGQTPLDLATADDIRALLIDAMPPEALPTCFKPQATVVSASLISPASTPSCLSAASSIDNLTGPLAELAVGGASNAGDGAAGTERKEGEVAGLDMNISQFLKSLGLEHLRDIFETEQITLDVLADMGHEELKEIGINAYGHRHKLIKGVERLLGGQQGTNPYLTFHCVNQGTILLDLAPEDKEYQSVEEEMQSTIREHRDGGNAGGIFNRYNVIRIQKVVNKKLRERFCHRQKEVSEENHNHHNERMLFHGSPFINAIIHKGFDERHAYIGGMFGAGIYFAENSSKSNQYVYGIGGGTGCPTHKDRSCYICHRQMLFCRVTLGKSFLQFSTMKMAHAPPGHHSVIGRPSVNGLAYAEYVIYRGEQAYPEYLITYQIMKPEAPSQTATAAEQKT
The test is described as follows: TNKS1 Assay 1 (TNKS1 Histone Ribosylation Assay Kit, biotin-labeled NAD+). It is filed as biochemical. Conditions: chemiluminescent readout, 384 well. The method, then:
The potency of the compounds according to the invention was assessed by applying an in vitro inhibition assay. The TNKS1 catalyzed NAD^+-dependent ribosylation of a suitable protein substrate was detected using a commercially available biotin/streptavidin binding based assay format [TNKS1 Histone Ribosylation Assay Kit (Biotin-labeled NAD+), Catalog #80579; BPS Bioscience, San Diego, USA]. Here, the incorporation of a biotin-labeled NAD+ during the TNKS1 catalyzed ribosylation reaction was detected with a streptavidin-HRP coupled chemi-luminescent readout. The intensity of the readout signal is proportional to the incorporated NAD^+. Inhibition of TNKS1 leads to a decreased incorporation of NAD^+ and consequently to a lower readout signal intensity. The concentration of a test compound which inhibits the enzyme activity by 50% (corresponds to half of the normed readout signal intensity) is reported as IC50.
The assay was conducted in a 384 well MTP format according to the manufacturer's protocol [bpsbioscience.com/poly-adp-ribose-polymerase/assay-kit/tnks1-histone-ribosylation-assay-kit-biotin-labeled-nad-80579 referencing: Brown, J. A., Marala, R. B. J. Pharmacol. Toxicol. Methods 2002 47:137-41] and using a BMG Pherastar MTP reader [BMG-Labtech, Offenburg, Germany].

Turning to `CNC(=O)c1nc[nH]c1C(=O)Nc1ccc(NC(=O)c2ccc(F)cc2Cl)c(C)c1` [Example 5, N^5-{4-[(2-chloro-4-fluorobenzoyl)amino]-3-methylphenyl}-N^4-methyl-1H-imidazole-4,5-dicarboxamide], the IC50 (commonly the concentration needed to halve the response being measured) is 320 nM (Table 1) and 320 nM (first table).

In the case of `CNC(=O)c1nc[nH]c1C(=O)Nc1ccc(NC(=O)c2ccc(OCCN(C)C)cc2Cl)cc1` [Example 25, N^5-[4-({2-chloro-4-[2-(dimethylamino)ethoxy]benzoyl}amino)phenyl]-N^4-methyl-1H-imidazole-4,5-dicarboxamide], the IC50 by setting is: (Table 1) 70 nM; (first table) 70 nM. With `CNC(=O)c1ncoc1C(=O)Nc1ccc(NC(=O)c2ccc(F)cc2Cl)cc1` [Example 11, N^5-{4-[(2-chloro-4-fluorobenzoyl)amino]phenyl}-N^4-methyl-1,3-oxazole-4,5-dicarboxamide], where the note is “Table 1”, the concentration for half-maximal inhibition (IC50) was 220 nM.
